Our source for the MIC and inhibition values is ChEMBL document CHEMBL1146480, “Antimycobacterial Naphthopyrones from Senna obliqua” (2004).

For orientation: MIC means the lowest concentration that inhibits growth of the organism. Higher therefore signals a need for much substance. By inhibition is commonly meant the change of the read-out against control, counted positive when it falls. Lower therefore signals a weak effect.

Experiment [1] deals with Mycobacterium tuberculosis. Description: Antimycobacterial activity against Mycobacterium tuberculosis ATCC 27294 in radiometric culture by NCCLS method. It is filed as functional.
For experiment [2], the system named is Mycobacterium tuberculosis. Description: Antimycobacterial activity against Mycobacterium tuberculosis ATCC 27294 in radiometric culture at 50 ug/ml by NCCLS method. It is filed as functional.

≈ marks a conversion by molar mass, not a printed value.

In the case of `COc1cc(O)c2c(O)c3c(=O)cc(C)oc3cc2c1C` [QUINQUANGULIN], the lowest concentration to inhibit growth in experiment [1] (MIC) was 12 µg/mL (≈ 41.9 µM). For the same molecule, in experiment [2], the inhibition at 50 µg/mL came to 99%.
For `COc1cc(O)c2c(O)c3c(=O)cc(C)oc3cc2c1` [RUBROFUSARIN], the minimum inhibitory concentration (MIC) in experiment [1] amounted to 12 µg/mL (≈ 44.1 µM). Also, in experiment [2], the inhibition at 50 µg/mL was 99%.
